Values of other authors, collected in patent EP3811932A1, “DOSAGE FORM OF APALUTAMIDE” (Zentiva K.S., priority 2019, dated 2021).

Details: over a wide range of pH values

In the case of `CNC(=O)c1ccc(N2C(=S)N(c3cnc(C#N)c(C(F)(F)F)c3)C(=O)C23CCC3)cc1F` [Apalutamide, 4-[7-[6-cyano-5-(trifluoromethyl)pyridin-3-yl]-8-oxo-6-thioxo-5,7-diazaspiro[3.4]octan-5-yl]-2-fluoro-N-methylbenzamide], the “solubility in aqueous media” value is listed as “practically insoluble”.
